Results taken from patent publication US8841339B2, “Synergistic antifouling compositions comprising 4-bromo-2-(4-chlorophenyl)-5-(trifluoromethyl)-1H-pyrrole-3-carbonitrile” (Janssen Pharmaceutica N.V., priority 2001, dated 2014).
Marks after values point to notes of the source that are not given here.

Key:
[1] = tested on: Chlorella vulgaris (CCAP 211/12); experiment: Poison plate assay in 96 multi-well plates, algae growth; type: cell-based; settings: single active ingredient, incubation time 18 days
Method: (§1) Activity against algae growth was determined with the poison plate assay. A calculated amount of a stock solution (containing either 4-bromo-2-(4-chlorophenyl)-5-(trifluoromethyl)-1H-pyrrole-3-carbonitrile, bethoxazin, DCOIT, dichlofluanide, or tolylfluanide in DMSO) was pipetted into multiwell plates in order to reach a final test concentration ranging from 0.05 to 100 ppm and mixed with a warm culture medium. The medium was inoculated with 300 μl of an algal suspension. The multi-well plates were kept at 21° C., a relative humidity of 65% and light-dark cycle of 16 hours a day (1000 Lux photoperiod).
(§2) The lowest concentration of each test compound or mixture of test compounds sufficient to inhibit visible growth was taken as the minimum inhibitory concentration (MIC). The MIC were taken as end points of activity. End points for the combinations of component (I) with one of the components (II) were then compared with the end points for the pure active test compound when employed individually.
(§3) Synergism between component (I) and one of the components (II) was determined by a commonly used and accepted method described by Kull F. C. et al. in Applied Microbiology, 9, 538-541 (1961) using the Synergy Index, which is calculated as follows for two compounds A and B:
(§4) [formula] wherein: • QA is the concentration of compound A in ppm, acting alone, which produced an end point (e.g. MIC), • Qa is the concentration of compound A in ppm, in the mixture, which produced an end point (e.g. MIC), • QB is the concentration of compound B in ppm, acting alone, which produced an end point (e.g. MIC), • Qb is the concentration of compound B in ppm, in the mixture, which produced an end point (e.g. MIC).
(§5) When the Synergy Index is greater than 1.0, antagonism is indicated. When the SI is equal to 1.0, additivity is indicated.

[2] = tested on: Stichococcus bacillaris (CCAP 379/1A); experiment: as above; type: cell-based; settings: single active ingredient, incubation time 18 days
Method: as §1, §2, §3, §4, §5

[O-][S+]1CCON=C1c1cc2ccccc2s1 (stereo not shown) [component (II-a), 3-(benzo[b]thien-2-yl)-5,6-dihydro-1,4,2-oxathiazine 4-oxide]
MIC-values (minimum inhibitory concentration) [1]: 1.6 ppm | MIC-values (minimum inhibitory concentration) [2]: 6.2 ppm

N#Cc1c(-c2ccc(Cl)cc2)[nH]c(C(F)(F)F)c1Br [component (I), 4-bromo-2-(4-chlorophenyl)-5-(trifluoromethyl)-1H-pyrrole-3-carbonitrile]
MIC-values (minimum inhibitory concentration) [1]: > 100* ppm | MIC-values (minimum inhibitory concentration) [2]: > 100* ppm

CCCCCCCCn1sc(Cl)c(Cl)c1=O [component (II-d), 4,5-dichloro-2-(n-octyl)-3(2H)-isothiazolone]
MIC-values (minimum inhibitory concentration) [1]: 1.6 ppm | MIC-values (minimum inhibitory concentration) [2]: 1.6 ppm

CN(C)S(=O)(=O)N(SC(F)(Cl)Cl)c1ccccc1 [component (II-c), 1,1-dichloro-N-[(dimethylamino)sulfonyl]-1-fluoro-N-phenyl-methanesulfenamide]
MIC-values (minimum inhibitory concentration) [1]: 25 ppm | MIC-values (minimum inhibitory concentration) [2]: 25 ppm

Cc1ccc(N(SC(F)(Cl)Cl)S(=O)(=O)N(C)C)cc1 [component (II-b), 1,1-dichloro-N-[(dimethylamino)sulfonyl]-1-fluoro-N-(4-methylphenyl)-methanesulfenamide]
MIC-values (minimum inhibitory concentration) [1]: 25 ppm | MIC-values (minimum inhibitory concentration) [2]: 12.5 ppm
